From patent publication US6537566B1, “Compositions and methods for the non-invasive treatment of uterine fibroid cells” (priority 1999, dated 2003)
Like-named read-outs stand apart in the source and are kept apart here.

Experiments:
Assay type in all cases: cell-based, human
[1] = system: uterine fibroid leiomyoma cells; experiment: DNA content experiment similar to Example 1, GF109203x versus α-tocopherol succinate, 6 days (FIGS. 5A & 5B); details: comparison of FIG. 5A with 5B; DNA content at time=6 days
Procedure: (§1) Method: Fibroid tissue was obtained from patients undergoing hysterectomy for symptomatic leiomyomata, and leiomyoma cells were isolated from the tissue using standard techniques. Leiomyoma cells in 5% fetal calf serum were plated at 22,000 cells/well in 12-well plate. Cells were allowed to acclimate and grow for 24 hours before the start of the experiment. At time=0, the DNA content of the wells was determined (32+/−0.6 ng/well), and the cells were treated with different concentrations of the FGI agents as shown in FIG. 3A in 5% fetal calf serum. Controls received fetal calf serum alone. After treatment at time=4 days, the DNA content of each well was determined using standard methods. All points were determined in triplicate and are the mean +/− standard error.
Clearly from Examples 1 & 2, tocopherol related substrates are potential FGI agents. This was expected because of tocopherol's effect on the PKC pathway. However, non-tocopherol related substrates that can appropriate appropriately effect the PKC pathway were also identified as potential FGI agents. Therefore, GF109203x, a protein kinase C inhibitor, was tested in an experiment similar to that of Example 1 to determine the efficacy of a non-tocopherol related, identified potential FGI agent to inhibit fibroid leiomyoma cell proliferation. Here, the DNA content of treated wells was determined at time=6 days. […]

[2] = system: uterine fibroid leiomyoma cells; experiment: DNA content assay of growing leiomyoma cells treated with FGI agents (Example 1, 4 days); details: for IC50: read-out: IC50 (= 80 ng) Concentration; for NG0 (= 32 ng) Concentration (no net growth): concentration giving the time=0 DNA content of 32 ng/well
From the text: A DNA assay was used for determining the effect of potential FGI agents on the growth of uterine fibroid leiomyoma cells. The assay determined the effect of various concentrations of an individual FGI agent on the accumulation of DNA in an actively growing population of uterine fibroid leiomyoma cells. The accumulation of DNA in treated cell populations relative to untreated controls was an indication the efficacy of the FGI agent for inhibiting fibroid cell proliferation.
as §1
The significance of the IC50 point was that it represented an estimated point relative to which a substrate may in part be gauged as an effective FGI agent. The NG0 (no net growth) was the point on the graph corresponding to the time=0 or starting DNA content of the wells.

[3] = system: uterine fibroid leiomyoma cells; experiment: Separate DNA content experiment under conditions similar to Example 1, read at 6 days (FIG. 3B); details: DNA content determined at time=6 days
Procedure: as §1
FIG. 3B is a graph of the results for α-tocopherol succinate from a separate experiment under conditions similar to Example 1. Here, the DNA content of treated wells was determined at time=6 days. The area under the horizontal line indicates the concentration at which net cell death occurred in this experiment (˜38 μM).

[4] = system: uterine fibroid leiomyoma cells; experiment: Growth of leiomyoma cells with low added concentrations over background tocopherols (Example 2); details: added concentrations ranging from 1 to 5 μM over background tocopherols (about 10 μM); 4 days
Procedure: as §1
Method: See Example 1 above generally. Vitamin C, an antioxidant that is not an identified potential FGI agent, was used as an experimental substrate control.
Results: The results are illustrated in FIGS. 4A and 4B. The DNA concentration of controls at time=4 days was 99+/−0.2 ng/well (the “0” concentration in FIGS. 4A & 4B). Growth of uterine fibroid cells clearly occurred in the presence of a background concentration of tocopherols. […] However, upon the addition of 10 μM over back ground tocopherol treated wells began to show detectable inhibition of the growth of uterine fibroid cell populations.

[5] = Homo sapiens, 96 h, increase in DNA content 50% of that of control wells, time=4 days, 5% fetal calf serum, N/A = condition not attained
[6] = time=4 days, 5% fetal calf serum, N/A = condition not attained
[7] = increase in DNA content 50% of that of control wells, time=4 days, 5% fetal calf serum, N/A = condition not attained

SMILES	NG0 (= 32 ng) Concentration (no net growth) [2, 6] [µM]	growth of uterine fibroid cell populations at low added concentrations [4]	also measured
CN(C)CCCn1cc(C2=C(c3c[nH]c4ccccc34)C(=O)NC2=O)c2ccccc21 [GF109203x]			efficiency at inhibiting fibroid leiomyoma cell proliferation relative to α-tocopherol succinate [1]: ~5 time
CCc1ccc(CCOc2ccc(CC3SC(=O)NC3=O)cc2)nc1 (centres unmarked) [Pioglitazone]	88		IC50 [2, 5]: 40 µM
CN(CCOc1ccc(CC2SC(=O)NC2=O)cc1)c1ccccn1 (centres unmarked) [Rosiglitazone]	90		IC50 ([2]; Homo sapiens, 96 h): 40 µM
Cc1c(C)c2c(c(C)c1O)CCC(C)(COc1ccc(CC3SC(=O)NC3=O)cc1)O2 (centres unmarked) [Troglitazone]	50		IC50 [2, 5]: 12 µM
Cc1c(C)c2c(c(C)c1OC(=O)CCC(=O)O)CC[C@@](C)(CCC[C@H](C)CCC[C@H](C)CCCC(C)C)O2 [α-Tocopherol succinate]	38	substantially uninhibited	IC50 [2, 7]: 22 µM; concentration at which net cell death occurred [3]: ~38 µM
Cc1c(C)c2c(c(C)c1O)CC[C@@](C)(CCC[C@H](C)CCC[C@H](C)CCCC(C)C)O2 [α-Tocopherol]		substantially uninhibited	IC50 [2, 7]: 27 µM
Cc1cc(O)c(C)c2c1O[C@](C)(CCC[C@H](C)CCC[C@H](C)CCCC(C)C)CC2 [β-Tocopherol]		substantially uninhibited	
